Biological target: T1, Mtb β-CA3 (Mycobacterium tuberculosis, UniProt P96878)
T1 construct: gene Rv3273
Assay: stopped-flow CO2 hydrase assay
Type: biochemical
Source text: stopped-flow CO2 hydrase assay on Mtb β-CA3

T1 sequence (P96878 555-764 limits assumed): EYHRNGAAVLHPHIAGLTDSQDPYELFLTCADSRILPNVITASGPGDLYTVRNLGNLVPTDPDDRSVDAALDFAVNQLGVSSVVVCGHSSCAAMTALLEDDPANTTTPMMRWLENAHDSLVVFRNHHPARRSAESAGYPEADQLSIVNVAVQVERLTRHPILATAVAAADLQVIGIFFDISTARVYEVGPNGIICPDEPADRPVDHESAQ

SMILES | Ki [nM]
S=C(S)N1CCOCC1 [compound 9, morpholine DTC 9] | 2.4
O=C(S)N1CCN(C(=O)S)CC1 [compound 3, 3] | 812
COc1ccc(CCNC(=O)S)cc1OC [compound 7, 3,4-dimethoxyphenylethyl derivative 7] | 97.9
CCCN(CCC)C(=O)S [compound 1, 1] | 559
O=C(S)NCCc1ccccc1 [compound 5, phenylethyl 5] | 93
S=C(S)N1CCN(C(=S)S)CC1 [compound 10, bis-piperazine derivative DTC 10] | 8
CC(C)CN(CC(C)C)C(=S)S [compound 8, DTC 8] | 43
O=C(CN1CCN(C(=S)S)CC1)NC1CCCCC1 [compound 11, DTC 11] | > 2000
O=C(CN1CCN(C(=O)S)CC1)NC1CCCCC1 [compound 6, 6] | 781
O=C(S)N1CCOCC1 [compound 2, MTC based morpholine 2] | 748
